Data on 18 compounds can be found in patent US11180474B2 (BRISTOL-MYERS SQUIBB COMPANY, priority 2016, dated 2021).

The target of the experiment is T1, human TLR8 (Homo sapiens, UniProt Q9NR97).
T1 construct: host or cells: HEK-Blue cells
T1 sequence (Q9NR97 27-1041): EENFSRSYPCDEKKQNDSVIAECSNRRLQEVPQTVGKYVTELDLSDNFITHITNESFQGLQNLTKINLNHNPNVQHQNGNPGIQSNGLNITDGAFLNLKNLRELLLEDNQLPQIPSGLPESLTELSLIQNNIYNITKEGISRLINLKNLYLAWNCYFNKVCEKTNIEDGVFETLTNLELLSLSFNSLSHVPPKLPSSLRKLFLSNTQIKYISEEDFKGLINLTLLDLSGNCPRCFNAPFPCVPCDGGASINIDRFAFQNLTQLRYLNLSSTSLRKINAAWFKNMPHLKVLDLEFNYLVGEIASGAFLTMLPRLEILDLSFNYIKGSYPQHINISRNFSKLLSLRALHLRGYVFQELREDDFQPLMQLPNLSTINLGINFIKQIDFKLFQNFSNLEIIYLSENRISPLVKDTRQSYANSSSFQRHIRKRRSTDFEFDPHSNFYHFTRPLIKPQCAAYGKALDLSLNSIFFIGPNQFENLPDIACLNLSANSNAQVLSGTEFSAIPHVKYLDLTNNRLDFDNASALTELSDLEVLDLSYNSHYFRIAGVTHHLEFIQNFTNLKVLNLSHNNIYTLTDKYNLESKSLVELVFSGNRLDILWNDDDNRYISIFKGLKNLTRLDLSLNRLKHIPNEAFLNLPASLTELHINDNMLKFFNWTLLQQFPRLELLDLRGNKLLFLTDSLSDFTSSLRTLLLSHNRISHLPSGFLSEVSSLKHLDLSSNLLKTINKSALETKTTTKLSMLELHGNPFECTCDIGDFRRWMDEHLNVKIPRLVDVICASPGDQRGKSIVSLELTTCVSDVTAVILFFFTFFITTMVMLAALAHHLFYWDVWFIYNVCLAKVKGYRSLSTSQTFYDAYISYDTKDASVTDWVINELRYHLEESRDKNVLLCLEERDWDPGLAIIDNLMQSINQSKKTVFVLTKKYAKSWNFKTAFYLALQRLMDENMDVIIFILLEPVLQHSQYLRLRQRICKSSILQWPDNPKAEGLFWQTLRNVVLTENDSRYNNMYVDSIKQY
Kind of experiment: TLR8 inhibition reporter assay (HEK-Blue cells, SEAP reporter, R848 stimulation). In kind it is cell-based. The following applies: HEK-Blue cells overexpressing human TLR8, R848 15.9 μM. The gist of the method:
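Dose-response testing from 0.05 nM to 50 μM final was done on reporter cells for 22 hours at 37° C. Secreted SEAP was then detected, and inhibition was calculated as percent reduction of the agonist-plus-DMSO signal compared with wells given a known inhibitor.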
For orientation: Reporter assays use an easily measured gene product as a stand-in for the process of interest.
By IC50 is commonly meant the concentration that gives 50% inhibition. The compound `COc1ccc(-c2[nH]c3ccc(C4CCN(C(=O)CN5CCC[C@H](C(=O)N6CCN(C(C)=O)CC6)C5)CC4)cc3c2C(C)C)cc1OC` [Example 284, (S)-2-(3-(4-acetylpiperazine-1-carbonyl)piperidin-1-yl)-1-(4-(2-(3,4-dimethoxyphenyl)-3-isopropyl-1H-indol-5-yl)piperidin-1-yl)ethan-1-one] registered an IC50 of 0.025 µM.
The result for `COc1ccc(-c2[nH]c3ccc(C4CCN(C(=O)CN5CCC[C@H](C(=O)NC(C)C)C5)CC4)cc3c2C(C)C)cc1OC` [Example 285, (S)-1-(2-(4-(2-(3,4-dimethoxyphenyl)-3-isopropyl-1H-indol-5-yl)piperidin-1-yl)-2-oxoethyl)-N-isopropylpiperidine-3-carboxamide] reads 0.037 µM; that for `COc1ccc(-c2[nH]c3ccc(C4CCN(C(=O)CN5CCC[C@H](C(=O)N6CCN(C(C)C)CC6)C5)CC4)cc3c2C(C)C)cc1OC` [Example 286, (S)-1-(4-(2-(3,4-dimethoxyphenyl)-3-isopropyl-1H-indol-5-yl)piperidin-1-yl)-2-(3-(4-isopropylpiperazine-1-carbonyl)piperidin-1-yl)ethan-1-one], 0.017 µM.
In the case of `COc1ccc(-c2[nH]c3ccc(C4CCN(C(=O)CN5CCC[C@H](C(=O)N6CCCC6)C5)CC4)cc3c2C(C)C)cc1OC` [Example 287, (S)-1-(4-(2-(3,4-dimethoxyphenyl)-3-isopropyl-1H-indol-5-yl)piperidin-1-yl)-2-(3-(pyrrolidine-1-carbonyl)piperidin-1-yl)ethan-1-one], the IC50 is 0.033 µM.
For `COc1ccc(-c2[nH]c3ccc(C4CCN(C(=O)CN5CCC[C@H](C(=O)N(C)C(C)C)C5)CC4)cc3c2C(C)C)cc1OC` [Example 288, (S)-1-(2-(4-(2-(3,4-dimethoxyphenyl)-3-isopropyl-1H-indol-5-yl)piperidin-1-yl)-2-oxoethyl)-N-isopropyl-N-methylpiperidine-3-carboxamide], the IC50 stood at 0.032 µM.
As for `COc1ccc(-c2[nH]c3ccc(C4CCN(C(=O)CN5CCC[C@H](C(=O)N6CCC(N(C)C)CC6)C5)CC4)cc3c2C(C)C)cc1OC` [Example 289, (S)-1-(4-(2-(3,4-dimethoxyphenyl)-3-isopropyl-1H-indol-5-yl)piperidin-1-yl)-2-(3-(4-(dimethylamino)piperidine-1-carbonyl)piperidin-1-yl)ethan-1-one], the concentration for half-maximal inhibition (IC50) came out at 0.014 µM.
The compound `COc1ccc(-c2[nH]c3ccc(C4CCN(C(=O)CN5CCC[C@H](C(=O)N6CCN(c7cccc(C(F)(F)F)c7)CC6)C5)CC4)cc3c2C(C)C)cc1OC` [Example 290, (S)-1-(4-(2-(3,4-dimethoxyphenyl)-3-isopropyl-1H-indol-5-yl)piperidin-1-yl)-2-(3-(4-(3-(trifluoromethyl)phenyl)piperazine-1-carbonyl)piperidin-1-yl)ethan-1-one] showed an IC50 of 0.803 µM.
For `COc1ccc(-c2[nH]c3ccc(C4CCN(C(=O)CN5CCC[C@H](C(=O)N6CCC(CCO)CC6)C5)CC4)cc3c2C(C)C)cc1OC` [Example 291, (S)-1-(4-(2-(3,4-dimethoxyphenyl)-3-isopropyl-1H-indol-5-yl)piperidin-1-yl)-2-(3-(4-(2-hydroxyethyl)piperidine-1-carbonyl)piperidin-1-yl)ethan-1-one], the concentration for half-maximal inhibition (IC50) was 0.017 µM.
`COc1ccc(-c2[nH]c3ccc(C4CCN(C(=O)CN5CCC[C@H](C(=O)N6CCCC(O)C6)C5)CC4)cc3c2C(C)C)cc1OC` (stereo partly drawn) [Example 292, 1-(4-(2-(3,4-dimethoxyphenyl)-3-isopropyl-1H-indol-5-yl)piperidin-1-yl)-2-((3S)-3-(3-hydroxypiperidine-1-carbonyl)piperidin-1-yl)ethan-1-one] yielded an IC50 of 0.022 µM.
With `COc1ccc(-c2[nH]c3ccc(C4CCN(C(=O)CN5CCC[C@H](C(=O)N6CCN(CCN7CCCC7)CC6)C5)CC4)cc3c2C(C)C)cc1OC` [Example 293, (S)-1-(4-(2-(3,4-dimethoxyphenyl)-3-isopropyl-1H-indol-5-yl)piperidin-1-yl)-2-(3-(4-(2-(pyrrolidin-1-yl)ethyl)piperazine-1-carbonyl)piperidin-1-yl)ethan-1-one], the IC50 came out at 0.033 µM.
Compound `COc1ccc(-c2[nH]c3ccc(C4CCN(C(=O)CN5CCC[C@H](C(=O)N6CCN(Cc7ccc(Br)cc7)CC6)C5)CC4)cc3c2C(C)C)cc1OC` [Example 294, (S)-2-(3-(4-(4-bromobenzyl)piperazine-1-carbonyl)piperidin-1-yl)-1-(4-(2-(3,4-dimethoxyphenyl)-3-isopropyl-1H-indol-5-yl)piperidin-1-yl)ethan-1-one] returned an IC50 of 0.554 µM.
The result for `COc1ccc(-c2[nH]c3ccc(C4CCN(C(=O)CN5CCC[C@H](C(=O)NCCNC(C)=O)C5)CC4)cc3c2C(C)C)cc1OC` [Example 295, (S)—N-(2-acetamidoethyl)-1-(2-(4-(2-(3,4-dimethoxyphenyl)-3-isopropyl-1H-indol-5-yl)piperidin-1-yl)-2-oxoethyl) piperidine-3-carboxamide] reads 0.022 µM; that for `COc1ccc(-c2[nH]c3ccc(C4CCN(C(=O)CN5CCC[C@H](C(=O)NC6(CO)CCCC6)C5)CC4)cc3c2C(C)C)cc1OC` [Example 296, (S)-1-(2-(4-(2-(3,4-dimethoxyphenyl)-3-isopropyl-1H-indol-5-yl)piperidin-1-yl)-2-oxoethyl)-N-(1-(hydroxymethyl)cyclopentyl)piperidine-3-carboxamide], 0.022 µM; that for `COc1ccc(-c2[nH]c3ccc(C4CCN(C(=O)CN5CCC[C@H](C(=O)NCC#N)C5)CC4)cc3c2C(C)C)cc1OC` [Example 297, (S)—N-(cyanomethyl)-1-(2-(4-(2-(3,4-dimethoxyphenyl)-3-isopropyl-1H-indol-5-yl)piperidin-1-yl)-2-oxoethyl)piperidine-3-carboxamide], 0.019 µM.
Take `COc1ccc(-c2[nH]c3ccc(C4CCN(C(=O)CN5CCC[C@H](C(=O)NCC(N)=O)C5)CC4)cc3c2C(C)C)cc1OC` [Example 298, (S)—N-(2-amino-2-oxoethyl)-1-(2-(4-(2-(3,4-dimethoxyphenyl)-3-isopropyl-1H-indol-5-yl)piperidin-1-yl)-2-oxoethyl)piperidine-3-carboxamide]: inhibition was half-maximal at 0.027 µM (IC50).
As for `COc1ccc(-c2[nH]c3ccc(C4CCN(C(=O)CN5CCC[C@H](C(=O)N6CC7CNCC7C6)C5)CC4)cc3c2C(C)C)cc1OC` (stereo partly drawn) [Example 299, 1-(4-(2-(3,4-dimethoxyphenyl)-3-isopropyl-1H-indol-5-yl)piperidin-1-yl)-2-((3 S)-3-(octahydropyrrolo[3,4-c]pyrrole-2-carbonyl)piperidin-1-yl)ethan-1-one], 0.128 µM corresponded to half-maximal inhibition (IC50).
The compound `COc1ccc(-c2[nH]c3ccc(C4CCN(C(=O)CN5CCC[C@H](C(=O)N6C(C)CCC6C)C5)CC4)cc3c2C(C)C)cc1OC` (stereo partly drawn) [Example 300, 1-(4-(2-(3,4-dimethoxyphenyl)-3-isopropyl-1H-indol-5-yl)piperidin-1-yl)-2-((3S)-3-(2,5-dimethylpyrrolidine-1-carbonyl)piperidin-1-yl)ethan-1-one] came in with an IC50 of 0.07 µM.
Compound `COc1ccc(-c2[nH]c3ccc(C4CCN(C(=O)CN5CCC[C@H](C(=O)N6CC[C@H](O)C6)C5)CC4)cc3c2C(C)C)cc1OC` [Example 301, 1-(4-(2-(3,4-dimethoxyphenyl)-3-isopropyl-1H-indol-5-yl)piperidin-1-yl)-2-((S)-3-((S)-3-hydroxypyrrolidine-1-carbonyl)piperidin-1-yl)ethan-1-one] showed a concentration for half-maximal inhibition (IC50) of 0.019 µM.
